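Cells were grown in 96-well plates and exposed to each compound for 48 hours at five concentrations; endpoints were interpolated linearly between bracketing concentrations, or set to the highest concentration if not reached. TGI denotes the concentration required for complete inhibition of growth.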
Key:
Test in all cases: NCI-60 cell line screen, 48 h
[1] = system: MCF7 breast
[2] = system: U251 CNS
[3] = system: NCI/ADR-RES ovarian
[4] = system: OVCAR-5 ovarian
[5] = system: RPMI-8226 leukemia
[6] = system: M14 melanoma
[7] = system: SW-620 colon
[8] = system: DU-145 prostate
[9] = system: HOP-92 NSCLC
[10] = system: KM12 colon
[11] = system: A498 renal
[12] = system: SK-MEL-5 melanoma
[13] = system: HOP-62 NSCLC
[14] = system: COLO 205 colon
[15] = system: HCC-2998 colon
[16] = system: IGROV1 ovarian
[17] = system: 786-0 renal
[18] = system: BT-549 breast
[19] = system: HT29 colon
[20] = system: UACC-257 melanoma
[21] = system: SNB-19 CNS
[22] = system: NCI-H23 lung
[23] = system: SN12C renal
[24] = system: CAKI-1 renal
[25] = system: OVCAR-3 ovarian
[26] = system: UO-31 renal
[27] = system: UACC-62 melanoma
[28] = system: ACHN renal
[29] = system: MALME-3M melanoma
[30] = system: SR leukemia
[31] = system: NCI-H460 lung
[32] = system: SF-268 CNS
[33] = system: HS 578T breast
[34] = system: T-47D breast
[35] = system: TK-10 renal
[36] = system: SF-295 CNS
[37] = system: CCRF-CEM leukemia
[38] = system: EKVX NSCLC
[39] = system: RXF 393 renal
[40] = system: NCI-H226 lung
[41] = system: SK-OV-3 ovarian
[42] = system: SK-MEL-2 melanoma
[43] = system: OVCAR-8 ovarian
[44] = system: OVCAR-4 ovarian
[45] = system: MDA-MB-435
[46] = system: MDA-MB-231 breast
[47] = system: HCT-116 colon
[48] = system: A549 NSCLC
[49] = system: HCT-15 colon
[50] = system: SK-MEL-28 melanoma
[51] = system: SNB-75 CNS
[52] = system: PC-3 prostate
[53] = system: MOLT-4 leukemia
[54] = system: HL-60(TB) leukemia
[55] = system: K-562 leukemia
[56] = system: SF-539 CNS

Measured: TGI

O=C1Cc2c([nH]c3ccccc23)C2(CC3CCCCN13)OCCO2 (configuration not stated)
> 100 µM: [1] | [2] | [3] | [4] | [5] | [6] | [7] | [8] | [9] | [10] | [11] | [12] | [13] | [14] | [15] | [16] | [17] | [18] | [19] | [20] | [21] | [22] | [23] | [24] | [25] | [26] | [27] | [28] | [29] | [30] | [31] | [32] | [33] | [34] | [35] | [36] | [37] | [38] | [39] | [40] | [41] | [42] | [43] | [44] | [45] | [46] | [47] | [48] | [49] | [50] | [51] | [52]

Cc1ccc(C2(c3ccc(C)cc3)SC(=C(C#N)C#N)c3ccccc32)cc1
> 100 µM: [1] | [2] | [3] | [4] | [6] | [53] | [7] | [8] | [9] | [10] | [11] | [12] | [13] | [15] | [16] | [17] | [18] | [19] | [54] | [55] | [21] | [22] | [23] | [25] | [26] | [27] | [28] | [29] | [30] | [31] | [32] | [33] | [34] | [35] | [36] | [37] | [38] | [39] | [40] | [41] | [42] | [43] | [56] | [45] | [46] | [47] | [48] | [49] | [50] | [52]

From PubChem BioAssay (NCI)
